Measured values: US20260240850A1, “Compositions and Methods for Treating MALT1 Associated Diseases” (Rarefied Biosciences, Inc., priority 2023, published 2026)

How the values were obtained:
full-length human MALT1 = biological target: T1, full-length human MALT1 (Homo sapiens, UniProt Q9UDY8); test: MALT1 cleavage of HOIL1 (Example 5); format: biochemical; settings: HOIL1 0.05 μg/μL with MALT1, 2 h at 37° C.; gel electrophoresis/immunoblot
T1 construct: Recombinant full-length human MALT1 protein was expressed and purified; made in house
T1 sequence (Q9UDY8 1-824): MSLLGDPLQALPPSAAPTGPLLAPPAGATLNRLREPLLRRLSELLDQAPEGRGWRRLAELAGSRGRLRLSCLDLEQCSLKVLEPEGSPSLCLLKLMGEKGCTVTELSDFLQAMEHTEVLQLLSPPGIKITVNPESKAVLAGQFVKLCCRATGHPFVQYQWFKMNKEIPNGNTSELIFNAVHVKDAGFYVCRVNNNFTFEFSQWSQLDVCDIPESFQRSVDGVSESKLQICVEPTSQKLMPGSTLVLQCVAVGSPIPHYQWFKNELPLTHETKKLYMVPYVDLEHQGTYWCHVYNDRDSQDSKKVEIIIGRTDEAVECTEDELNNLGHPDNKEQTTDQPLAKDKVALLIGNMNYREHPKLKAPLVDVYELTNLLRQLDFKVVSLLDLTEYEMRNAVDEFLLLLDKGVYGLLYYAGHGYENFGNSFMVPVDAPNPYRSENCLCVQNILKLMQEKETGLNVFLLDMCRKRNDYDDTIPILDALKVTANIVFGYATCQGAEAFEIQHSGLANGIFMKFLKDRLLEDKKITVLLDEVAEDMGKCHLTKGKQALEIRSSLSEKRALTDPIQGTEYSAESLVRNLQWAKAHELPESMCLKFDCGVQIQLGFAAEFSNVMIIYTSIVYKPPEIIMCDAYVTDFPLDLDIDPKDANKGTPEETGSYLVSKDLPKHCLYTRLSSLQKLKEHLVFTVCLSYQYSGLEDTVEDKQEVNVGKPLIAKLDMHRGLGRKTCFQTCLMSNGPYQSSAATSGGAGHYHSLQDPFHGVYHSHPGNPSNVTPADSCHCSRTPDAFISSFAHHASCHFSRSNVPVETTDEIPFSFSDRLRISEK
Description: Recombinant full-length human MALT1 protein was expressed and purified. C-terminal Myc-FLAG-tagged full-length human HOIL1 was obtained from Origene. HOIL1 protein (0.05 μg/μL) is incubated with different concentrations of MALT1 in assay buffer (200 mM Tris-HCl, 0.8 M Na citrate, 0.1 mM EGTA, 0.05% CHAPS, 1 mM DTT, pH 7.4) for 2 h at 37° C. Cleavage of HOIL1 was analyzed by gel electrophoresis using a 4-12% Bis-Tris SDS-polyacrylamide (PAGE) gradient gel (Life Technologies). The presence of a small fragment was confirmed by immunoblotting with an N-terminal antibody (anti-N-terminal HOIL1; HPA024185; Sigma). Total HOIL1 was observed using a C-terminal directed antibody (anti-FLAG, clone M2, Sigma). These assays are performed with both the cleavable HOIL1 and, as a negative control, a non-cleavable HOIL1 (where Lys is substituted for Arg165).

[1] = test system: mTor pathway (e.g., mTORc1 and/or mTORc2) in primary T cells; test: mTor pathway activation in stimulated primary T cells, pAkt/pS6 staining (Example 3); format: cell-based; settings: primary T cells after anti-CD3/anti-CD28 activation
Description: Primary T cells are stimulated to activation and cultured in the presence of IL-2. For stimulation, cells are preincubated with anti-CD3F and anti-CD28 on ice and washed. Cells were stimulated by crosslinking the anti-CD3 antibody with a secondary antibody (e.g., anti-mouse IgG for 10 min) in complete T cell media and then fixed with pre-warmed fixation buffer. Cells are then washed with FACS buffer and permeabilized with permeabilization buffer pre-chilled to −20° C. and incubated for 30 min on ice. Cells are washed and then stained with the following antibodies or appropriate isotype controls anti-pAkt (Ser473) and anti-pS6 (Ser240/244).
MALT1 inhibitors (e.g., Compounds 1.1, 1.26, 1.27, 1.30, 1.33, 2.1, and/or 2.4) are incubated with the primary T cells after activation.

patients with BENTA = test: Clinical trial of MALT1 inhibitors for BENTA (Example 2); format: in vivo; settings: oral once daily, 25 mg/day up to 1000 mg/day
Description: MALT1 inhibitors (e.g., Compounds 1.1, 1.26, 1.27, 1.30, 1.33, 2.1, and/or 2.4) are used to treat patients with BENTA. MALT1 inhibitors (e.g., Compounds 1.1, 1.26, 1.27, 1.30, 1.33, 2.1, and/or 2.4) are formulated in an oral dosage form and administered to patients once daily at a starting dose of 25 mg/day. Alternatively, the daily dose is escalated from 25 mg/day to 1000 mg/day.

[2] = test system: T cells that lack endogenous CARD11 and bear transfected CARD11 gain-of-function mutations; κB-GFP readout of NFκB signaling; test: NF-κB-GFP reporter in T cells transfected with CARD11 gain-of-function cDNA (Example 1); format: cell-based; settings: T cells with CARD11 GOF variants; baseline and after anti-CD3 or PMA/ionomycin; flow cytometry
Description: MALT1 inhibitors (e.g., Compounds 1.1, 1.26, 1.27, 1.30, 1.33, 2.1, and/or 2.4) are incubated with T cells that lack endogenous CARD11 and bear transiently transfected CARD11 cDNA bearing gain-of-function mutations. An optional variation is co-transfecting 50:50 a copy of the wildtype CARD11 gene with the CARD11 gain of function mutant. The T-cells include a reporter gene (κB-GFP) that acts as a readout of NFκB signaling. The expression of NF-κB-GFP at baseline and after anti-CD3, or PMA/ionomycin stimulation is measured.
T-Cells bearing GOF variants of CARD11 have elevated baseline activation of NF-κB-GFP, and higher still after stimulation, which is assessed by flow cytometry.

[3] = test system: epithelial cells (e.g., HEK293 cells) bearing CARD14 gain-of-function mutations; κB-GFP readout of NFκB signaling; test: NF-κB-GFP reporter in epithelial cells transfected with CARD14 gain-of-function cDNA (Example 4); format: cell-based; settings: epithelial cells with CARD14 GOF variants; flow cytometry
Description: MALT1 inhibitors (e.g., Compounds 1.1, 1.26, 1.27, 1.30, 1.33, 2.1, and/or 2.4) are incubated with epithelial cells (e.g., HEK293 cells) that lack endogenous CARD14 and bear transiently transfected CARD14 cDNA bearing gain-of-function mutations. The epithelial cells include a reporter gene (κB-GFP) that acts as a readout of NFκB signaling. The expression of NF-κB-GFP at baseline and after anti-CD3, or PMA/ionomycin stimulation is measured.
Epithelial cells bearing gain of function variants of CARD14 have elevated baseline activation of NF-κB-GFP, and higher still after stimulation, which is assessed by flow cytometry.

SMILES	cleavage of HOIL1 (full-length human MALT1)	mTor pathway (mTORc1 and/or mTORc2) activation [1]	BENTA symptoms (patients with BENTA)	Jun/Fos, NF-κB and/or mTor pathway activation in patients (patients with BENTA)	NF-κB-GFP expression [2]	NF-κB-GFP expression [3]
CO[C@@H](C)c1c(Nc2ccc([C@@H](N(C)C(=O)C3CCS(=O)(=O)CC3)C(F)(F)F)cc2)cnc2nc(Cl)nn12 [Compound 1.26, N-[(1R)-1-[4-({2-chloro-7-[(1S)-1-methoxyethyl]-[L2,4]triazolo[1,5-a]pyrimidin-6-yl}amino)phenyl]-2,2,2-trifluoroethyl]-N-methyl-1,1-dioxo-1λ^6-thiane-4-carboxamide]	cleavage of HOIL1 is reduced	suppress mTor pathway (e.g., mTORc1 and/or mTORc2) activation	amelioration of their BENTA symptoms	reduced Jun/Fos, and/or NF-κB and/or a mTor pathway (e.g., mTORc1 and/or mTORc2) activation	lowered NF-κB-GFP expression	lowered NF-κB-GFP expression
CO[C@H](C)c1c(Nc2ccc([C@@H](N(C)C(=O)C3CCS(=O)(=O)CC3)C(F)(F)F)cc2)cnc2nc(Cl)nn12 [Compound 1.27, N—[(IR)—I-[4-({2-chloro-7-[(1R)-1-methoxyethyl]-[1,2,4]triazolo[1,5-a]pyrimidin-6-yl}amino)phenyl]-2,2,2-trifluoroethyl]-N-methyl-1,1-dioxo-1λ^6-thiane-4-carboxamide]	cleavage of HOIL1 is reduced	suppress mTor pathway (e.g., mTORc1 and/or mTORc2) activation	amelioration of their BENTA symptoms	reduced Jun/Fos, and/or NF-κB and/or a mTor pathway (e.g., mTORc1 and/or mTORc2) activation	lowered NF-κB-GFP expression	lowered NF-κB-GFP expression
CO[C@@H](C)c1c(Nc2ccc([C@H](N(C)C(=O)C3CCS(=O)(=O)CC3)C(F)(F)F)c(C)c2)cnc2nc(Cl)nn12 [Compound 1.30, N-[(1S)-1-[4-({2-chloro-7-[(1S)-1-methoxyethyl]-[1,2,4]triazolo[1,5-a]pyrimidin-6-yl}amino)-2-methylphenyl]-2,2,2-trifluoroethyl]-N-methyl-1,1-dioxo-1λ^6-thiane-4-carboxamide]	cleavage of HOIL1 is reduced	suppress mTor pathway (e.g., mTORc1 and/or mTORc2) activation	amelioration of their BENTA symptoms	reduced Jun/Fos, and/or NF-κB and/or a mTor pathway (e.g., mTORc1 and/or mTORc2) activation	lowered NF-κB-GFP expression	lowered NF-κB-GFP expression

Continued, in another order:

cleavage of HOIL1 (full-length human MALT1)	SMILES	mTor pathway (mTORc1 and/or mTORc2) activation [1]	BENTA symptoms (patients with BENTA)	Jun/Fos, NF-κB and/or mTor pathway activation in patients (patients with BENTA)	NF-κB-GFP expression [2]	NF-κB-GFP expression [3]
cleavage of HOIL1 is reduced	CO[C@@H](C)c1c(Nc2ccc([C@H](N(C)C(=O)C3CCS(=O)(=O)CC3)C(F)(F)F)cc2C)cnc2nc(Cl)nn12 [Compound 1.33, N-[(1S)-1-[4-({2-chloro-7-[(1S)-1-methoxyethyl]-[1,2,4]triazolo [1,5-a]pyrimidin-6-yl}amino)-3-methylphenyl]-2,2,2-trifluoroethyl]-N-methyl 1,1-dioxo-1λ^6-thiane-4-carboxamide]	suppress mTor pathway (e.g., mTORc1 and/or mTORc2) activation	amelioration of their BENTA symptoms	reduced Jun/Fos, and/or NF-κB and/or a mTor pathway (e.g., mTORc1 and/or mTORc2) activation	lowered NF-κB-GFP expression	lowered NF-κB-GFP expression
cleavage of HOIL1 is reduced	CN(C(=O)[C@H]1CC[C@H](C(=O)O)CC1)[C@@H](c1ccc(Nc2cnn(-c3ccccc3)c2C(F)(F)F)cc1)C(F)(F)F [Compound 2.1]	suppress mTor pathway (e.g., mTORc1 and/or mTORc2) activation	amelioration of their BENTA symptoms	reduced Jun/Fos, and/or NF-κB and/or a mTor pathway (e.g., mTORc1 and/or mTORc2) activation	lowered NF-κB-GFP expression	lowered NF-κB-GFP expression
